Patent US8309766B2 (Obschestvo S. Organichennoi Otvetstvennostiyu …, priority 2005, dated 2012)
Where two headings read alike, the source gives them in different places.

What was measured:
[1] = system: "acetic contortions" in mice; experiment: Analgetic activity on the model "acetic contortions"; format: in vivo, white mongrel mice
Description: The tests were conducted on males of white mongrel mice weighing 22-24 grams. The specific pain response (“contortions”) were elicited by intraperitoneal administration to mice of 0.75% acetic acid solution. The following signs were taken into consideration: the number of seizure contractions of abdominal muscles accompanied by stretching the hind limbs and sagging the back. Analgetic effect was assessed by decrease in the number of contortions in animals in percent to the control for 15 minutes post administration of acetic acid. The technique of the tests is disclosed in Koster R., Anderson M., de Beer B.//Fed. Proc. 1959. V. 18. P. 412. Compounds under testing were administered intraperitoneally (using a probe) at a dose 10 μg/kg 60 minutes prior to injection of the acid. Diclofenac (10 mg/kg) was used as a reference drug. Analgetic effect was calculated according to the formula: […]
wherein Ck is the number of contortions in the control group,
Co is the number of contortions in the test group.

[2] = system: "hot plate" test in mice; experiment: Analgetic activity on the model "hot plate"; format: in vivo, white mongrel mice; details: for response vs control in vivo at 10 mg/kg / change in vivo at 10 mg/kg / change in vivo at 200 mg/kg / response vs control in vivo at 200 mg/kg: Mus musculus; for response vs control in vivo at 10 mg/kg: percent of background; for response vs control in vivo at 10 mg/kg / response vs control in vivo at 200 mg/kg: read-out: Latent time of NT (%); for change in vivo at 10 mg/kg / change in vivo at 200 mg/kg: read-out: Analgesia (%)
Description: The tests were conducted on males of white mongrel mice weighing 22-24 grams. The animals were individually placed on a hot plate (manufactured by the firm “Ugo Basile”), a temperature of which remained constant and was equal to 55° C. The following first manifestations of pain reaction were recorded: licking paws, jumping up prior to administration of a substance (background parameters) and 0.5, 1, 2, 3 and 4 hours post administration of a substance. Substances were administered […] (using a probe). A weighed amount of a substance was thoroughly mixed in 0.1 ml Tween 80 until a solution was obtained, then normal saline was added up to a volume of 0.5 ml. Average latent time of nociception threshold (NT) was calculated in every group. The results obtained were expressed in percent of the background values. Analgetic effect (in %) was calculated according to the formula: A−100%=X, wherein A is a background parameter; X is analgetic effect (in %)
A is (time 0.5 to 4 hours post administration×100%): background time
As reference drugs, Analgin (150 mg/kg), Paracetamol (200 mg/kg), Ketorol (10 mg/kg), were used.

[3] = Mus musculus, ip, 0.25 h, dose 10 mg/kg (table title), read-out: Analgetic effect (%)
[4] = Mus musculus, ip, 0.25 h, dose 10 mg/kg (table title), read-out: C, % to the control
[5] = dose 10 mg/kg (table title), 60 minutes prior to acetic acid
[6] = 10 mg/kg, 30 minutes post administration
[7] = 10 mg/kg, 60 minutes post administration
[8] = 10 mg/kg, 120 minutes post administration
[9] = 0.5 h, Paracetamol 200 mg/kg, 30 minutes
[10] = 1 h, Paracetamol 200 mg/kg, 60 minutes
[11] = 2 h, Paracetamol 200 mg/kg, 120 minutes

Row | SMILES | inhibition in vivo at 10 mg/kg [1, 3] [%] | response vs control in vivo at 10 mg/kg [1, 4] [%] | C ± m (the number of contortions for 15 minutes) [1, 5] | latent time of nociception threshold, M ± m [2, 6] [s] | latent time of nociception threshold, M ± m [2, 7] [s] | latent time of nociception threshold, M ± m [2, 8] [s] | response vs control in vivo at 10 mg/kg ([2]; 0.5 h, 10 mg/kg, 30 minutes) [%] | change in vivo at 10 mg/kg ([2]; 0.5 h, 10 mg/kg, 30 minutes) [%] | response vs control in vivo at 10 mg/kg ([2]; 1 h, 10 mg/kg, 60 minutes) [%] | change in vivo at 10 mg/kg ([2]; 1 h, 10 mg/kg, 60 minutes) [%] | response vs control in vivo at 10 mg/kg ([2]; 2 h, 10 mg/kg, 120 minutes) [%] | change in vivo at 10 mg/kg ([2]; 2 h, 10 mg/kg, 120 minutes) [%] | further results
1 | O=C(Cc1ccc(O)cc1)NC(Cc1ccc(O)cc1)C(=O)O (stereo not shown) [Compound II, p-hydroxyphenylacetyltyrosine] | 24.8 | 75.2 | 24.2 ± 1.9 | 6.0 ± 0.6 | 6.1 ± 0.8 | 7.3 ± 0.6 | 176 | 76.5 | 179 | 79.4 | 215 | 115 | –
2 | O=C(Cc1ccc(O)cc1)NC(Cc1ccccc1)C(=O)O (stereo not shown) [Compound III, p-hydroxyphenylacetylphenylalanine] | 39.9 | 60.2 | 19.4 ± 3.3 | 6.7 ± 0.9 | 5.9 ± 0.8 | 7.0 ± 0.6 | 181 | 81 | 160 | 59.5 | 189 | 89.2 | –
3 | COC(=O)C(Cc1ccc(O)cc1)NC(=O)Cc1ccc(O)cc1 (stereo not shown) [Compound IV, p-hydroxyphenylacetyltyrosine methyl ester] | 22.1 | 77.9 | 20.8 ± 1.9 | 5.24 ± 0.88 | 5.54 ± 0.32 | 5.93 ± 0.59 | 104 | 4.2 | 110 | 10.1 | 118 | 17.9 | –
4 | COC(=O)C(Cc1ccccc1)NC(=O)Cc1ccc(O)cc1 (stereo not shown) [Compound V, p-hydroxyphenylacetylphenylalanine methyl ester] | 39.3 | 60.7 | 16.2 ± 2.6 | 4.85 ± 0.39 | 5.9 ± 0.81 | 6.58 ± 0.72 | 130 | 29.7 | 158 | 57.8 | 176 | 75.9 | –
5 | O=C(Cc1ccccc1)NCCc1ccc(O)cc1 [Compound VI, phenylacetyltyramine] | 25.5 | 74.5 | 21.1 ± 1.8 | 7.8 ± 0.8 | 8.3 ± 1.0 | 6.8 ± 0.5 | 132 | 32.2 | 141 | 40.7 | 115 | 15.3 | –
6 | O=C(Cc1ccc(O)cc1)NCCc1ccc(O)cc1 [Compound VII, p-hydroxyphenylacetyltyramine] | – | – | – | – | 6.9 ± 0.72 | 8.2 ± 0.94 | – | – | 134 | 34.5 | 159 | 58.9 | –
7 | O=C(CCc1ccccc1)NCCc1ccccc1 [Compound XI, 3-phenylpropionylphenylethylamine] | 38.2 | 61.8 | 21.2 ± 2.5 | 5.35 ± 0.98 | 6.49 ± 1.1 | – | 143 | 43.4 | 174 | 74 | – | – | latent time of nociception threshold, M ± m ([2]; 10 mg/kg, 180 minutes post administration): 6.27 ± 0.33 s; latent time of nociception threshold, M ± m ([2]; 10 mg/kg, 240 minutes post administration): 4.07 ± 0.26 s; response vs control in vivo at 10 mg/kg ([2]; 3 h, 10 mg/kg, 180 minutes): 141%; change in vivo at 10 mg/kg ([2]; 3 h, 10 mg/kg, 180 minutes): 41.3%; response vs control in vivo at 10 mg/kg ([2]; 4 h, 10 mg/kg, 240 minutes): 136%; change in vivo at 10 mg/kg ([2]; 4 h, 10 mg/kg, 240 minutes): 35.9%
8 | COC(=O)[C@H](Cc1ccccc1)NC(=O)CCc1ccc(O)cc1 [Compound XIII, 3-(p-hydroxyphenyl)-propionylphenylalanine methyl ester] | 48.4 | 51.6 | 14.6 ± 1.8 | 5.9 ± 0.3 | 6.7 ± 0.7 | 6.8 ± 0.3 | 107 | 7.3 | 122 | 21.8 | 124 | 23.6 | –
9 | CC(=O)N[C@@H](Cc1ccc(O)cc1)C(=O)NCCc1ccc(O)cc1 [Compound XXIX, acetyltyrosyltyramine] | 42.9 | 57.1 | 15.7 ± 1.9 | 6.3 ± 1.2 | 7.2 ± 0.8 | 8.0 ± 1.0 | 197 | 197 | 225 | 125 | 250 | 150 | –
10 | O=C(O)Cc1ccccc1Nc1c(Cl)cccc1Cl [Diclofenac, reference compound] | – | – | – | – | – | – | – | – | – | – | – | – | C ± m (the number of contortions for 15 minutes) ([1]; Diclofenac 10 μg/kg [sic]): 12.9 ± 2.13
11 | CC(=O)Nc1ccc(O)cc1 [Paracetamol, reference compound] | – | – | – | – | – | – | – | – | – | – | – | – | change in vivo at 200 mg/kg [2, 9]: 139%; response vs control in vivo at 200 mg/kg [2, 9]: 239%; change in vivo at 200 mg/kg [2, 10]: 58%; response vs control in vivo at 200 mg/kg [2, 10]: 158%; change in vivo at 200 mg/kg [2, 11]: 92%; response vs control in vivo at 200 mg/kg [2, 11]: 192%; latent time of nociception threshold, M ± m ([2]; Paracetamol 200 mg/kg, 30 minutes): 9.44 ± 1.3 s; latent time of nociception threshold, M ± m ([2]; Paracetamol 200 mg/kg, 60 minutes): 6.24 ± 0.82 s; latent time of nociception threshold, M ± m ([2]; Paracetamol 200 mg/kg, 120 minutes): 7.6 ± 1.15 s
12 | O=C(O)Cc1ccccc1Nc1c(Cl)cccc1Cl [Voltaren, reference compound] | – | – | – | – | – | – | – | – | – | – | – | – | inhibition in vivo at 0.008 mg/kg ([1]; Mus musculus, ip, 0.25 h, Voltaren 8 μg/kg, read-out: Analgetic effect (%)): 44.5%; response vs control in vivo at 0.008 mg/kg ([1]; Mus musculus, ip, 0.25 h, Voltaren 8 μg/kg, read-out: C, % to the control): 55.5%; C ± m (the number of contortions for 15 minutes) ([1]; Voltaren 8 μg/kg): 15.8 ± 2.6
